Assay [1] deals with T1, human serotonin transporter (hSERT) (Homo sapiens, UniProt P31645).
T1 construct: expressed in transfected cells; host or cells: HEK-293, membranes
The assay can be described thus: hSERT receptor binding, [125I]-RTI-55, HEK-293 membranes. As to conditions: [125I]-RTI-55, HEK-293 membranes, Cheng-Prusoff; read-out: SERT Ki. The method, then:
Cell pastes of HEK-293 cells transfected with a human serotonin transporter cDNA were prepared. […] Aliquots of membranes (−2.5 mg/ml protein) were stored in liquid nitrogen until used.
The reaction was incubated and gently agitated for 90 minutes at room temperature, and terminated by removal of assay volume. […] Test compounds were run in duplicate, and specific binding was defined as the difference between binding in the presence and absence of 10 μM citalopram. Excel and GraphPad Prism software were used for data calculation and analysis. IC50 values were converted to Ki values using the Cheng-Prusoff equation.

The subject of assay [2] is capsaicin-induced mechanical allodynia. Nature of the assay: Rat model of capsaicin-induced mechanical allodynia. Format: in vivo. As to conditions: sc, read-out: % Inhibition of allodynia. The method, then: Compounds of the present invention may be assayed for their ability to treat fibromylagia—like pain in a rat model of capsaicin-induced mechanical allodynia (e.g., Sluka, K A, (2002) J of Neuroscience, 22(13): 5687-5693). For example, a rat model of capsaicin-induced mechanical allodynia) was be carried out as follows:
On day 0, male Sprague-Dawley rats (˜150 g) in the dark cycle were placed in suspended wire-bottom cages and allowed to acclimate for 0.5 hour in a darkened, quiet room. The day 0 paw withdrawal threshold (PWT) was determined on the left hind paw by Von Frey hair assessment using the Dixon up and down method. After assessment, the plantar muscle of the right hind paw was injected with 100 μl capsaicin (0.25% (w/v) in 10% ethanol, 10% Tween 80, in sterile saline). On day 6 the PWT of the left hindpaw (contralateral from injection site) was determined for each animal. Animals from the day 6 prereads with PWT≦11.7 g were considered allodynic responders and were regrouped so that each cage had similar mean PWT values. On day 7, responders were dosed subcutaneously with 10 mg compound/kg body weight, or with vehicle alone. The vehicle was phosphate buffered saline containing 2% Cremophor® EL (BASF). The contralateral PWT values were determined at 1 hour after the single dose, with the investigator blinded to the dosing scheme.
In addition, the day 6 PWT was subtracted from the day 0 PWT to give the baseline window of allodynia present in each animal.

Assay [3] has as its target T2, human norepinephrine transporter (hNET) (Homo sapiens, UniProt P23975).
T2 construct: expressed in transfected cells; host or cells: HEK-293, membranes
The assay can be described thus: hNET receptor binding, [125I]-RTI-55, HEK-293 membranes. As to conditions: Cheng-Prusoff, read-out: NET Ki. The method, then: Cell pastes of HEK-293 cells transfected with a human norepinephrine transporter cDNA were prepared. The cell pastes were resuspended in 400 to 700 ml of Krebs-HEPES assay buffer (25 mM HEPES, 122 mM NaCl, 3 mM KCl, 1.2 mM MgSO4, 1.3 mM CaCl2, and 11 mM glucose, pH 7.4) with a Polytron homogenizer at setting 7 for 30 seconds. Aliquots of membranes (5 mg/ml protein) were stored in liquid nitrogen until used.
The binding assay was set up in Beckman deep-well polypropylene plates with a total volume of 250 μl containing: drug (10^−5M to 10^−12M), cell membranes, and […] [^125I]-RTI-55 (Perkin Elmer, NEX-272; specific activity 2200 Ci/mmol). The reaction was incubated by gentle agitation for 90 minutes at room temperature and was terminated by filtration through Whatman GF/C filter plates using a Brandel 96-well plate harvester. Scintillation fluid (100 μl) was added to each well, and bound [^125I]-RTI-55 was determined using a Wallac Trilux Beta Plate Counter. Test compounds were run in duplicate, and specific binding was defined as the difference between binding in the presence and absence of 10 μM desipramine.
Excel and GraphPad Prism software were used for data calculation and analysis. IC50 values were converted to Ki values using the Cheng-Prusoff equation. The Ki values (nM) for the hNET are reported below in Table 1.

Setting [4] is: male Sprague-Dawley rats, 10 mg/kg subcutaneously, PWT 1 hour after single dose, mean of eight animals, normalized for vehicle.

Where a name gives a salt, the structure may show the parent alone. Read-outs that look alike come from different tables or passages of the source.

Data on 26 compounds can be found in US20080161309A1, “Novel Compounds” (priority 2004, published 2008).

T1 sequence (P31645 whole entry): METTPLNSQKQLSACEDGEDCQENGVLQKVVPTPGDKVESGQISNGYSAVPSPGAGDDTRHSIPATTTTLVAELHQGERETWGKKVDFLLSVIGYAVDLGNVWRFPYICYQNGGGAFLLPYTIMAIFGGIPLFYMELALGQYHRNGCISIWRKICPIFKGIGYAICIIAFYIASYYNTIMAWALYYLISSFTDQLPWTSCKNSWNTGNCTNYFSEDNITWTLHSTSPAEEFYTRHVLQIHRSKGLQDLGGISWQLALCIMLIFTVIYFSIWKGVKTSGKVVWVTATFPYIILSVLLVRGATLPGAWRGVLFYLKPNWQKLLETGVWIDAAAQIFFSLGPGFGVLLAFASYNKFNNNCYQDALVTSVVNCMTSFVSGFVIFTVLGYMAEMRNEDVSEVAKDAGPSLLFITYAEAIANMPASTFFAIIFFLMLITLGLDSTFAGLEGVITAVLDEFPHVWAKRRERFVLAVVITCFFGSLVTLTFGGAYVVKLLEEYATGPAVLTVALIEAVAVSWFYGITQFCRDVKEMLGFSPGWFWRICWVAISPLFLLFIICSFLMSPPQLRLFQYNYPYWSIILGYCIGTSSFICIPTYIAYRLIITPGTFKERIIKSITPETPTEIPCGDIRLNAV
T2 sequence (P23975 whole entry): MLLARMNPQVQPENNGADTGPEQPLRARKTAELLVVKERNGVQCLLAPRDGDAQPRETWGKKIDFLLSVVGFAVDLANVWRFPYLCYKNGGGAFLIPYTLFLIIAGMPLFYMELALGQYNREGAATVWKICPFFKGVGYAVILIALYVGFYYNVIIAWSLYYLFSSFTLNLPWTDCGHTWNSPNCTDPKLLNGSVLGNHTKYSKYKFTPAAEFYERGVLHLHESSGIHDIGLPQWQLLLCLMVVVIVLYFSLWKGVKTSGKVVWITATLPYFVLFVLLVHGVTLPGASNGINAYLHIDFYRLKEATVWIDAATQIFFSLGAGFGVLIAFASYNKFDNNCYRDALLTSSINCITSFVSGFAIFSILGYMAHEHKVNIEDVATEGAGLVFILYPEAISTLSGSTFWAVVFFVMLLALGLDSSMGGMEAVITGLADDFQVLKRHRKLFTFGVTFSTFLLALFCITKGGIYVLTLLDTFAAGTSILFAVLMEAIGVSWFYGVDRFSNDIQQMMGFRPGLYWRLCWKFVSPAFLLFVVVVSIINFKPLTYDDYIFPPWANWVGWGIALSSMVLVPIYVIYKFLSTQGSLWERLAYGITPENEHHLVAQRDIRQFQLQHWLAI

Take `COc1cccc([C@H](Oc2ccc(F)cc2Br)[C@@H]2CNCCO2)c1` [Example 70, (2S)-2-[(1S)-(2-Bromo-4-fluorophenoxy) (3-methoxyphenyl)methyl] morpholine hydrochloride]: the values for the Ki in assay [1] and in assay [3] were 0.111 µM and 0.0119 µM, respectively. Moreover, the inhibition in vivo at 10 mg/kg in assay [2] (setting [4]) turned out to be 27.3%.
The matching figures for `Cc1cccc([C@H](Oc2ccc(F)cc2Cl)[C@@H]2CNCCO2)c1` [Example 56, (2S)-2-[(1S)-(2-Chloro-4-fluorophenoxy)-m-tolyl-methyl] morpholine hydrochloride]: 0.152 µM, 0.0136 µM and 35.6%.
`Cc1ccccc1O[C@@H](c1cccc(F)c1)[C@@H]1CNCCO1` [Example 49, (2S)-2-[(1S)-(3-Fluorophenyl)-o-tolyloxy-methyl] morpholine hydrochloride]: the Ki in assay [1] stood at 0.194 µM; in assay [3] it was 0.0068 µM.
Take `Fc1cccc([C@H](Oc2cccc(F)c2F)[C@@H]2CNCCO2)c1` [Example 39, (2S)-2-[(1S)-(2,3-Difluorophenoxy)(3-fluorophenyl)methyl] morpholine hydrochloride]: the Ki is 0.142 µM in assay [1] and 0.00377 µM in assay [3].
The matching figures for `Fc1cccc([C@H](Oc2c(F)cc(F)cc2F)[C@@H]2CNCCO2)c1` [Example 65, (2S)-2-[(1S)-(3-Fluorophenyl) (2,4,6-trifluorophenoxy)methyl] morpholine hydrochloride]: 0.511 µM and 0.0157 µM.
Turning to `Fc1cccc([C@H](Oc2c(F)cccc2F)[C@@H]2CNCCO2)c1` [Example 47, (2S)-2-[(1S)-(2,6-Difluorophenoxy)-(3-fluorophenyl)methyl] morpholine hydrochloride], the Ki in assay [1] came to 0.967 µM; in assay [3] it was 0.0069 µM.
The matching figures for `CCCc1ccccc1O[C@@H](c1cccc(F)c1)[C@@H]1CNCCO1` [Example 66, (2S)-2-[(1S)-(3-Fluorophenyl) (2-propylphenoxy)methyl] morpholine hydrochloride]: 1.03 µM and 0.0199 µM.
The matching figures for `COc1cccc([C@H](Oc2ccc(Cl)cc2OC)[C@@H]2CNCCO2)c1` [Example 61, (2S)-2-[(1S)-(4-Chloro-2-methoxyphenoxy) (3-methoxyphenyl)methyl] morpholine hydrochloride]: 0.038 µM and 0.0201 µM.
As to `COc1ccc(O[C@@H](c2ccccc2)[C@@H]2CNCCO2)c(Cl)c1` [Example 96, (2S)-2-[(1S)-(2-Chloro-4-methoxyphenoxy)phenylmethyl] morpholine fumarate], the Ki in assay [1] came out at 0.047 µM; in assay [3], 0.0257 µM.
`Fc1ccc(Cl)c(O[C@@H](c2cccc(Cl)c2)[C@@H]2CNCCO2)c1` [Example 53, (2S)-2-[(1S)-(2-Chloro-5-fluorophenoxy) (3-chlorophenyl)methyl] morpholine hydrochloride]: the Ki in assay [1] was found to be 0.344 µM; in assay [3], 0.0266 µM.
On the same counts, the results for `COc1ccc(Cl)cc1O[C@@H](c1ccccc1)[C@@H]1CNCCO1` [Example 84, (2S)-2-[(1S)-(5-Chloro-2-methoxyphenoxy)phenylmethyl]morpholine fumarate] are 0.437 µM and 0.0101 µM.
On the same counts, the results for `Fc1cc(F)c(Cl)c(O[C@@H](c2ccccc2)[C@@H]2CNCCO2)c1` [Example 83, (2S)-2-[(1S)-(2-Chloro-3,5-difluorophenoxy)phenylmethyl]morpholine fumarate] are 0.222 µM and 0.0089 µM.
Turning to `CCOc1ccccc1O[C@@H](c1ccccc1)[C@@H]1CNCCO1` [(2S)-2-[(1S)-(2-ethoxyphenoxy)(phenyl)methyl]morpholine, reference compound], the inhibition in vivo at 10 mg/kg in assay [2] (1 h) worked out at 17%.
For the compound `COc1ccc(C)cc1O[C@@H](c1cccc(F)c1)[C@@H]1CNCCO1` [Example 51, (2S)-2-[(1S)-(3-Fluorophenyl)-(2-methoxy-5-methylphenoxy)methyl] morpholine hydrochloride], the Ki in assay [1] turned out to be 1.04 µM; in assay [3], 0.0266 µM.
As for `COc1cc(C)ccc1O[C@@H](c1ccccc1)[C@@H]1CNCCO1` [Example 40, (2S)-2-[(1S)-(2-Methoxy-4-methylphenoxy)phenylmethyl] morpholine hydrochloride], the Ki was 0.158 µM in assay [1] and 0.0043 µM in assay [3].
Regarding `COc1cc(F)ccc1O[C@@H](c1cccc(C)c1)[C@@H]1CNCCO1` [Example 57, (2S)-2-[(1S)-(4-Fluoro-2-methoxyphenoxy)-m-tolyl-methyl] morpholine hydrochloride], the values for the Ki in assay [1] and in assay [3] were 0.544 µM and 0.0197 µM, respectively.
On the same counts, the results for `Fc1cc(Cl)ccc1O[C@@H](c1ccccn1)[C@@H]1CNCCO1` [Example 104, (2S)-2-[(1S)-(4-chloro-2-fluorophenoxy)(pyridin-2-yl)methyl]morpholine fumarate] are 0.486 µM and 0.0211 µM.
The matching figures for `COc1cccc([C@H](Oc2cc(F)ccc2Cl)[C@@H]2CNCCO2)c1` [Example 69, (2S)-2-[(1S)-(2-Chloro-5-fluorophenoxy) (3-methoxyphenyl)methyl] morpholine hydrochloride]: 0.687 µM and 0.00792 µM.
Turning to `COc1cc(Cl)ccc1O[C@@H](c1ccccn1)[C@@H]1CNCCO1` [Example 103, (2S)-2-[(1S)-(4-chloro-2-methoxyphenoxy)(pyridin-2-yl)methyl]morpholine fumarate], the Ki in assay [1] turned out to be 0.101 µM; in assay [3], 0.0128 µM.
For `Fc1ccc([C@H](Oc2ccc(F)cc2Cl)[C@@H]2CNCCO2)cc1` [Example 74, (2S)-2-[(1S)-(2-Chloro-4-fluorophenoxy) (4-fluorophenyl)methyl] morpholine hydrochloride], the Ki in assay [1] worked out at 0.138 µM; in assay [3] it was 0.0186 µM.
`Fc1ccc(O[C@@H](c2ccc(Cl)cc2)[C@@H]2CNCCO2)c(Cl)c1` [Example 72, (2S)-2-[(1S)-(2-Chloro-4-fluorophenoxy) (4-chlorophenyl)methyl] morpholine hydrochloride]: the Ki stood at 0.0789 µM in assay [1] and 0.0916 µM in assay [3].
Take `COc1ccc(O[C@@H](c2ccccn2)[C@@H]2CNCCO2)c(Cl)c1` [Example 106, (2S)-2-[(1S)-(2-chloro-4-methoxyphenoxy)(pyridin-2-yl)methyl]morpholine fumarate]: the Ki in assay [1] worked out at 0.216 µM; in assay [3] it was 0.0138 µM.
On the same counts, the results for `COc1cc(Cl)ccc1O[C@@H](c1cccc(C)c1)[C@@H]1CNCCO1` [Example 54, (2S)-2-[(1S)-(4-Chloro-2-methoxyphenoxy)-m-tolyl-methyl] morpholine hydrochloride] are 0.0417 µM and 0.0237 µM.
The matching figures for `COc1ccc(O[C@@H](c2cccc(C)c2)[C@@H]2CNCCO2)c(OC)c1` [Example 58, (2S)-2-[(1S)-(2,4-Dimethoxyphenoxy)-m-tolyl-methyl] morpholine hydrochloride]: 0.474 µM and 0.0429 µM.
For the compound `COc1ccc(Cl)c(O[C@@H](c2ccccc2)[C@@H]2CNCCO2)c1` [Example 97, (2S)-2-[(1S)-(2-Chloro-5-methoxyphenoxy)phenylmethyl] morpholine fumarate], the inhibition constant Ki in assay [1] turned out to be 0.134 µM; in assay [3] it was 0.0425 µM.
The matching figures for `Clc1cc(Cl)c(O[C@@H](c2ccccc2)[C@@H]2CNCCO2)c(Cl)c1` [Example 98, (2S)-2-[(1S)-Phenyl-(2,4,6-trichlorophenoxy)methyl] morpholine fumarate]: 0.0496 µM and 0.755 µM.
